These results are taken from patent publication US9920075B2, “Triazolopyridine and triazolopyrimidine inhibitors of myeloperoxidase” (BRISTOL-MYERS SQUIBB COMPANY, priority 2014, dated 2018).

This assay concerns the target T1, myeloperoxidase (MPO) (Homo sapiens, UniProt P05164).
T1 sequence (P05164 49-745): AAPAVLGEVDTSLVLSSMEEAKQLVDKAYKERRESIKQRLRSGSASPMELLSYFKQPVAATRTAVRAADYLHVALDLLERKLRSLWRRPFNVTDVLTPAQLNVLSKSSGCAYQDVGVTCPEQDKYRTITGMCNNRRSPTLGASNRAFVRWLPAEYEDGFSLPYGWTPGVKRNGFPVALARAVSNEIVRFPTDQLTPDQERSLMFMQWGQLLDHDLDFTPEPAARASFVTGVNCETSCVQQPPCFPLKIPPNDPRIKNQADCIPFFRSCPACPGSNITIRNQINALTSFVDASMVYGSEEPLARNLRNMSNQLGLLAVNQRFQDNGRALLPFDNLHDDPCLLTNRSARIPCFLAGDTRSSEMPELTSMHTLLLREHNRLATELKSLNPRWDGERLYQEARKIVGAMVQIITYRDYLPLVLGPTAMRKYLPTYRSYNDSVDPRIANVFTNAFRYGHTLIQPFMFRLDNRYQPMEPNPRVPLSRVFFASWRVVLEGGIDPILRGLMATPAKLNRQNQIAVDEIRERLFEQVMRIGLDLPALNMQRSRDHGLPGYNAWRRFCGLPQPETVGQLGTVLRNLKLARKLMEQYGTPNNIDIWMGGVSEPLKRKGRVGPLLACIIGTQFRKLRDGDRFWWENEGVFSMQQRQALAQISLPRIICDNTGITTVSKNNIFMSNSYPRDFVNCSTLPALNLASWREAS
As to the kind of experiment: MPO peroxidation assay (Amplex Red assay). It is filed as biochemical. The settings on record: MPO peroxidation (Amplex Red), ranges given. As to the method:
MPO Peroxidation Assay (Amplex Red Assay)
MPO peroxidation activity was measured in 100 mM KPi (pH 7.4) by utilizing the non-fluorescent reagent Amplex Red (Invitrogen Cat. #A12222) which can be oxidized to the highly fluorescent resorufin. Amplex Red is oxidized by the peroxidase action of MPO to resorufin. […] Enzyme and compound were preincubated for ten minutes at room temperature.
After the ten minute preincubation, 25 μL of an Amplex Red mixture containing 200 μM Amplex Red and 10 mM H2O2 was added to the plate.
IC50 values were calculated by determining the slope of the linear portion of the kinetic trace (180-540 secs), and using that calculated slope to determine % inhibition occurring at each concentration of inhibitor using the following equation:
[formula] where A=minimal Y value (activity level of inhibited sample), B=maximal Y value (activity level of uninhibited sample), C=Log IC50, D=Hill Slope, x=concentration of inhibitor. MPO Chlorination Assay (APF Assay)

The mark [1] stands for this setting: read-out: MPO peroxidation assay IC50 values (binned).

The IC50 is the concentration at which inhibition is half-maximal.

Structures are written as SMILES. Where “and” joins values, the source holds several entries; their conditions need not be identical. Identical values can stand only once. Like-named read-outs stand apart in the source and are kept apart here.

On to `COCc1nn(-c2ccccc2)nc1COc1cc(N)nc2[nH]nnc12` [Example 56, 7-((5-(Methoxymethyl)-2-phenyl-2H-1,2,3-triazol-4-yl)methoxy)-3H-[1,2,3]triazolo[4,5-b]pyridin-5-amine], for which the IC50 under setting [1] was 60 to 150 nM.

In the case of `Cc1nn(-c2ccc(Br)cc2)nc1COc1cc(N)nc2[nH]nnc12` [Example 58, 7-((2-(4-Bromophenyl)-5-methyl-2H-1,2,3-triazol-4-yl)methoxy)-3H-[1,2,3]triazolo[4,5-b]pyridin-5-amine], the half-maximal inhibitory concentration (IC50) under setting [1] fell in the range of 150 to 1000 nM.

As to `Cc1nn(-c2ccc(N3CCNCC3)cc2)nc1COc1cc(N)nc2[nH]nnc12` [Example 63, 7-((5-Methyl-2-(4-(piperazin-1-yl)phenyl)-2H-1,2,3-triazol-4-yl)methoxy)-3H-[1,2,3]triazolo[4,5-b]pyridin-5-amine], under setting [1], the IC50 lay within 60 to 150 nM.

Take `Nc1cc(OCc2nn(-c3ccccc3)nc2CO)c2nn[nH]c2n1` [Example 64, (5-(((5-Amino-3H-[1,2,3]triazolo[4,5-b]pyridin-7-yl)oxy)methyl)-2-phenyl-2H-1,2,3-triazol-4-yl)methanol]: the IC50 (MPO peroxidation assay IC50 values (binned)) is 60 to 150 nM.

Consider `N#Cc1nn(-c2ccccc2)nc1COc1cc(N)nc2[nH]nnc12` [Example 65, 5-(((5-Amino-3H-[1,2,3]triazolo[4,5-b]pyridin-7-yl)oxy)methyl)-2-phenyl-2H-1,2,3-triazole-4-carbonitrile], for which, under setting [1], the 50% inhibitory concentration (IC50) was ≤ 60 nM.

Consider `Cc1nn(Cc2ccccc2)nc1COc1cc(N)nc2[nH]nnc12` [Example 66, 7-((2-Benzyl-5-methyl-2H-1,2,3-triazol-4-yl)methoxy)-3H-[1,2,3]triazolo [4,5-b]pyridin-5-amine], for which, under setting [1], the IC50 was ≤ 60 nM.

Turning to `Cc1nn(C2CCNCC2)nc1COc1cc(N)nc2[nH]nnc12` [Example 68, 7-((5-Methyl-2-(piperidin-4-yl)-2H-1,2,3-triazol-4-yl)methoxy)-3H-[1,2,3]triazolo[4,5-b]pyridin-5-amine], the IC50 under setting [1] is 60 to 150 nM.

Take `Cc1nn(CC2CCNC2)nc1COc1cc(N)nc2[nH]nnc12` (centres unmarked) [Example 69, 7-((5-Methyl-2-(pyrrolidin-3-ylmethyl)-2H-1,2,3-triazol-4-yl)methoxy)-3H-[1,2,3]triazolo[4,5-b]pyridin-5-amine]: the IC50 under setting [1] lay in the range of 150 to 1000 nM.

With `Cc1nn(Cc2c[nH]cn2)nc1COc1cc(N)nc2[nH]nnc12` [Example 71, 7-((2-((1H-Imidazol-4-yl)methyl)-5-methyl-2H-1,2,3-triazol-4-yl)methoxy)-3H-[1,2,3]triazolo[4,5-b]pyridin-5-amine], under setting [1], the IC50 was 60 to 150 nM and 150 to 1000 nM.

On to `Cc1nn(C[C@@H]2C[C@H](Oc3ccccc3)CN2)nc1COc1cc(N)nc2[nH]nnc12` [Example 73, 7-((5-Methyl-2-(((2S,4S)-4-phenoxypyrrolidin-2-yl)methyl)-2H-1,2,3-triazol-4-yl)methoxy)-3H-[1,2,3]triazolo[4,5-b]pyridin-5-amine], for which the half-maximal inhibitory concentration (IC50) under setting [1] was ≤ 60 nM.

For `Cc1nn(Cc2cccc(C3CCNCC3)c2)nc1COc1cc(N)nc2[nH]nnc12` [Example 78, 7-((5-Methyl-2-(3-(piperidin-4-yl)benzyl)-2H-1,2,3-triazol-4-yl)methoxy)-3H-[1,2,3]triazolo[4,5-b]pyridin-5-amine], under setting [1], the IC50 is ≤ 60 nM.

Turning to `COc1ncc(Br)cc1COc1cc(N)nc2[nH]nnc12` [Example 81, 7-((5-Bromo-2-methoxypyridin-3-yl)methoxy)-3H-[1,2,3]triazolo[4,5-b]pyridin-5-amine], under setting [1], the IC50 was ≤ 60 nM.

As to `Nc1cc(OCc2ccc(C(F)(F)F)o2)c2nn[nH]c2n1` [Example 82, 7-((5-(Trifluoromethyl)furan-2-yl)methoxy)-3H-[1,2,3]triazolo[4,5-b]pyridin-5-amine], the IC50 under setting [1] is ≤ 60 nM.

As for `Nc1cc(OCC2CCN(c3ncccn3)CC2)c2nn[nH]c2n1` [Example 84, 7-((1-(Pyrimidin-2-yl)piperidin-4-yl)methoxy)-3H-[1,2,3]triazolo[4,5-b]pyridin-5-amine], the IC50 under setting [1] was 60 to 150 nM.
